From US7985832B2, “Antimicrobial cathelicidin peptides” (Kansas State University Research Foundation, priority 2005, dated 2011)
Ends that are not written are not given here.

Experiments:
skin S. aureus = settings: literature (Murakami et al.); cited from earlier work
chicken erythrocytes = format: cell-based
Experimental: FIG. 9. Hemolytic Activity of Canine Cathelicidin. The assays were performed with chicken red blood cells as previously described (49). The data shown represent the mean of duplicate values from two independent experiments.
(§1) Hemolytic activity of K9CATH was determined (Skerlavag, FEBS Lett., 463:58 (1999); Yu et al., J. Pept. Res., 60:1 (2002)). Briefly, 4 mL of canine blood was collected in EDTA-containing blood collection tubes (Becton Dickinson, Franklin Lakes, N.J.). Whole blood was then centrifuged at 10,000×g for 1 minute at room temperature. Plasma was discarded (supernatant) and erythrocytes were washed twice with PBS, re-suspended to a 0.5% (vol/vol) solution in PBS, and 90 μL dispensed into 96-well microtiter plates. Different concentrations of K9CATH dissolved in 0.01% acetic acid were added in duplicate to dog cells and incubated at 37° C. for 2 hours. Following centrifugation at 8000×g for 10 minutes, supernatants were transferred to new 96-well microtiter plates and monitored by measuring the absorbance at 405 nm for released hemoglobin. Controls for 0 and 100% hemolysis consisted of cells suspended in PBS only and in 1.0% Triton X-100, respectively. Percentage of hemolysis (%) was calculated as [(OD415 nm, peptide solution−OD415 nm, PBS only)/(OD415 nm, 1% Triton X-100−OD 415 nm, PBS only)]×100. […]

dog erythrocytes = format: cell-based
Experimental: as §1, with “only)]×100. The N-terminal 18 amino acid segment of bovine myeloid antimicrobial peptide 28 (BMAP-28(1-18)) (Skerlavaj et al., J. Biol. Chem., 271:28375 (1996); Yu et al., J. Pept. Res., 60:1 (2002); Risso et al., Cell. Immunol., 189:107 (1998)) was used as a positive control.” for “only)]×100.”

Escherichia coli = format: cell-based
Excerpt: (§2) Microorganisms against which a polypeptide of the invention is active include prokaryotic and eukaryotic cells such as Gram-negative and Gram-positive bacteria, yeast and protozoa. Non-limiting examples include Listeria monocytogenes, Staphylococcus aureus, Escherichia coli, Klebsiella pneumoniae, Salmonella typhimurium, Pseudomonas aeruginosa, Proteus mirabilis, Salmonella enteritidis, Neisseria gonorrhoeae, Ureaplasma canigenitalium, Ureaplasma urealyticum, Candida albicans, Trichomonas vaginalis, Treponema pallidum or Chlamydia trachomatis, or a spoilage organism. […] MIC antimicrobial activity refers to complete inhibition of the growth of a microorganism, as judged by the naked eye, after a selected period of incubation. The method used to determine MIC is that set forth in Sang et al., Infection and Immunity, 2611-20 (May, 2005).
(§3) Microorganisms evaluated were: Candida albicans ATCC 11006 and 14053, Escherichia coli ATCC 25922, 700336, 700378, and BAA-457, Klebsiella pneumoniae ATCC 10031, Listeria monocytogenes ATCC 19155, Proteus mirabilis ATCC 12453, Pseudomonas aeruginosa ATCC 10145, Salmonella Enteritidis ATCC 13076, Salmonella Typhimurium ATCC 13311, Staphylococcus aureus ATCC 10832, Ureaplasma canigenitalium ATCC 51252, and Ureaplasma urealyticum ATCC 27619. C. albicans was grown overnight (35° C.) on potato dextrose agar and managed according to NCCSL standards (Pfaller et al., Manual NCCLS #M27-A2, 6th ed., Wayne, Pa. (2002)). U. canigenitalium and U urealyticum were stored at −20° C. in urea broth 10B (per ATCC specifications) and thawed at 5° C. the night prior to assay. All other bacteria were maintained on trypticase soy agar (Difco, Detroit, Mich.) plates at 37° C. Mid-logarithmic phase bacteria were grown by transferring single cell colonies into trypticase soy broth (Difco), followed by incubation and homogenization for 3 hours at 37° C. Bacterial pellets were obtained after centrifugation for 10 minutes at 4° C. at 900×g, and washed once, followed by suspension in 10 mM sodium phosphate buffer (PB, pH 7.4, [Na+]=17.83 mM). Initial bacterial concentrations were determined (Ferraro et al., Manual NCCLS #M7-A6, 6th ed., Wayne, Pa. (2003)). Initial bacterial populations of 10^8 CFU/mL were obtained at an optical density (OD) of 0.1 at 600 nm. C. albicans were suspended in 10 mM PB to a McFarland standard of 0.5 for an initial 10^8 CFU/ml following NCCLS standards (Pfaller et al., Manual NCCLS #M27-A2, 6th ed., Wayne, Pa. (2002)), except that the recommended 0.85% saline solution was replaced with 10 mM PB. All microbial serial dilutions were performed in 10 mM PB to obtain 10^3 CFU/mL working dilutions.
(§4) A modified broth microdilution method (Pfaller et al., Manual NCCLS #M27-A2, 6th ed., Wayne, Pa. (2002); Ferraro et al., Manual NCCLS #M7-A6, 6th ed., Wayne, Pa. (2003)) was used to determine the antimicrobial activity of K9CATH (Sang et al., Infect. Immun., 73:2611 (2005)). Briefly, 50 μL of the K9CATH working stocks were added to the wells of a microtiter plate in which 25 μL of 30 mM sodium PB (pH 7.4, [Na+]=53.49 mM), 25 μL H2O, and 50 μL of the microbial suspension had been previously combined. Microtiter plates were incubated at 37° C. for 2 hours in a shaking incubator (100 RPM), followed by the addition of 150 μL of the corresponding nutritive broth. Antimicrobial activity was determined by establishing the minimal inhibitory concentrations (MIC), defined as the lowest concentration in which microbial growth was prevented, as indicated by the lack of turbidity or color change in the medium (urea broth 10B) after 24 hours of incubation at 37° C. Treated gonorrheal suspension (50 μL) was spot-plated on chocolate agar, and the MIC was defined as the lowest concentration in which no colonies developed after 24 hours of incubation at 37° C. in 5% CO2. […]

Pseudomonas aeruginosa = format: cell-based
Excerpt: as §2, §3, §4

Listeria monocytogenes = format: cell-based
Excerpt: as §2, §3, §4

Salmonella Enteritidis = format: cell-based
Excerpt: as §2, §3, §4

Proteus mirabilis = format: cell-based
Excerpt: as §2, §3, §4

Ureaplasma urealyticum = format: cell-based
Excerpt: as §2, §3, §4

Salmonella Typhimurium = format: cell-based
Excerpt: as §2, §3, §4

Klebsiella pneumoniae = format: cell-based
Excerpt: as §2, §3, §4

Row | Substance | concentration inhibiting skin S. aureus (skin S. aureus) | lower in vitro hemolytic activity compared to BMAP-18 (chicken erythrocytes) | lower in vitro hemolytic activity compared to BMAP-18 (dog erythrocytes) | MIC (Escherichia coli) | MIC (Pseudomonas aeruginosa) | MIC (Listeria monocytogenes) | MIC (Salmonella Enteritidis) | MIC (Proteus mirabilis) | MIC (Ureaplasma urealyticum) | MIC (Salmonella Typhimurium) | MIC (Klebsiella pneumoniae)
1 | LL-37: human cathelicidin antimicrobial peptide (LLGDFFRKSKEKIGKEFKRIVQRIKDFLRNLVPRTES; Antibacterial peptide LL-37; UniProt P49913 134-170, looked up) | > 64 µM | – | – | – | – | – | – | – | – | – | –
2 | RLKELITTGGQKIGEKIRRIGQRIKDFFKNLQPREEKS [K9CATH] | – | 10-20 fold | 10-20 fold | 1.11 µM | 1.11 µM | 0.44 µM | 0.44 µM | 1.11 µM | 44.33 µM | 1.11 µM | 1.11 µM
